From patent US20230045522A1, “COMPOSITIONS AND METHODS TO MODULATE GLUCOSE HOMEOSTASIS” (The Board of Supervisors of Louisiana State University and …, priority 2019, published 2023) come the findings set out here.

In series [1] the test system is C2C12 myotubes. Kind of series: Uptake of bioactives into C2C12 myotubes treated with PMI-5011 (UPLC/MS). As to conditions: PMI-5011 10 μg/mL.
Method: (§1) C2C12 myotubes were incubated with vehicle control (DMSO) or PMI-5011 (10 μg/mL) for 1, 6, or 16 h as indicated. At each time point, (A) the medium and washes were collected at neutral pH, (B) this was followed by collection of surface bound compounds at acidic pH and cell lysates that were separated into soluble (Lysate) and insoluble fractions (Pellet) for analysis of content by UPLC/MS.
(§2) Murine C2C12 (ATCC; #CRL-1771) or rat L6 myoblasts (ATCC, #CRL-1458) were cultured in DMEM, high glucose (25 mM) with 10% FBS, 2 mM glutamine, and antibiotics (100 units/mL penicillin G and 100 μg/mL streptomycin) in a humidified chamber at 37° C. and 5% CO2. To obtain fully differentiated myotubes, the medium was exchanged for DMEM, high glucose with 2% horse serum, glutamine, and antibiotics when the myoblasts reached confluence. The medium was replaced every 48 hours, and the cells were maintained in this medium until fully differentiated, when the medium was exchanged for DMEM, low glucose (5 mM) with 2% horse serum. The myotubes were fully formed by the fourth day post-induction. The experiments analyzing the impact of each experimental material on insulin signaling in the presence of palmitate-induced insulin resistance were performed as described previously.^31 To determine uptake of bioactives into the myotubes, the cells were treated with PMI-5011 (10 μg/mL) for 0, 1, or 16 h prior to medium collection. At each time point, the cells were thoroughly rinsed with D-Hanks, pH 7.4 at 4° C., followed by incubation with D-Hanks buffer, pH 4.0 at 4° C. for 30 min with gentle rocking to remove surface-bound compounds. Cells were then collected in denaturing buffer containing 50 mM Tris-Cl, pH 7.4 with 150 mM NaCl, 1 mM EDTA, 1% Igepal, 0.5% Na-deoxycholate, 0.1% SDS, protease inhibitors (1 μM PMSF, 10 μg/mL aprotinin, 1 μg/mL pepstatin, 5 μg/mL leupeptin). The harvested cells were sonicated on ice and the supernatant and pellet were collected by centrifugation at 13,400×g for 10 min at 4° C.
(§3) UPLC/MS Analysis of Cell Preparations. […]
Series [2] has as its system C2C12 myotubes. As to conditions: mouse, 10 μg/mL.
Method: as §1, §2, §3
Series [3] relates to AMPK. Briefly: AMPK Thr172 phosphorylation in C2C12 myotubes (immunoblot). As to conditions: for increase in phosphorylation of AMPK (phospho-AMPK to total AMPK, fold over 0-time): 1 hour of exposure, PMI-5011 10 μg/ml, AICAR 0.5 mM, metformin 2 mM. Type of series: cell-based, murine. From the text:
Results shown are representative of three independent experiments.

Series [4] can be described thus: Blood glucose in very high fat diet obese insulin-resistant mice, 6 h after gavage. Type of series: in vivo, C57BL/6J male mice. The note with it: 6 hour treatment, PMI-5011 500 mg/kg, KOE 500 mg/kg, KOF 100 mg/kg, 2 at 100 or 300 mg/kg, metformin 300 mg/kg.
Method: (A) C57BL/6J male mice were fed a 60% kcal fat diet for 16 weeks prior to a 6 h treatment with labrasol (vehicle), metformin, PMI-5011, reconstituted PMI-5011 (RE=KOE+KOF), KOE, KOF, synthetic 2. […] Statistical significance is reported as mean−/+standard deviation, compared to (vehicle) control.
(A) Absolute (mg/dL) and (B) percent change in blood glucose levels from baseline for each treatment group six hours after treatment. […] Statistical significance is reported as mean−/+standard deviation, compared to (vehicle) control; ns, not significant; *p<0.05; ** p<0.01; *** p<0.001.
Glucose Homeostasis. […] To address this, C57BL/6J male mice were fed a very high fat diet (60% kcal fat, VHFD) over 16 weeks to induce obesity, prior to testing the ability of PMI-5011 (500 mg/kg), KOE (500 mg/kg), KOF (100 mg/kg), and purified 2 at 100 or 300 mg/kg body weight to alter blood glucose levels (FIG. 4). Metformin (300 mg/kg) was used as a positive control.
Animal Experiments. Male C57BL/6J mice were obtained from Jackson Laboratories (Bar Harbor, Me.). […] The animals were housed singly with a 12 h light-dark cycle at 24° C. […] Body weight was measured weekly. […]
Blood and Tissue Chemistry. Fasting glucose levels were measured in whole blood using a Breeze2 glucometer (Bayer, Leverkusen, Germany). […]
The subject of series [5] is LKB1. Kind of series: LKB1 Ser428 phosphorylation in skeletal muscle of mice. Type of series: in vivo, C57BL/6J mice. As to conditions: gavage; compared to vehicle gavaged mice.
Method: Tubulin or β-actin are included as a loading control.
Male C57BL/6J mice were obtained from Jackson Laboratories (Bar Harbor, Me., USA). All animal experiments were approved by the Rutgers University Animal Care and Use Committee (Protocol #04-023) and were in compliance with the NIH Guide for the Care and Use of Laboratory. The animals were housed singly with a 12 hour light-dark cycle at 24° C. At 4 weeks of age, the mice were placed on a very high fat diet (60 kcal % fat, D12492, Research Diets) for 16 weeks. Body weight was measured weekly. […] Blood glucose levels were assayed at baseline and each hour thereafter up to 6 hours post gavage. The mice were euthanized and tissues were collected for analysis at 6 hours after gavage.
C2C12 myotube lysates were prepared by sonication in 20 mM Tris pH 7.4, 1% Igepal CA630, 5 mM EDTA with 10 mM Na4P2O7, 100 mM NaF, 2 mM Na3VO4, 1 mM PMSF, 10 μg/ml aprotinin, 1 μg/ml pepstatin, and 5 μg/ml leupeptin. The tissue and cell lysates were centrifuged at 14,000×g for 10 minutes at 4° C. Protein concentrations were determined using BCA assays (Thermo Fisher Scientific, Rockford, Ill., USA) and the resulting supernatants (50 μg) were resolved by 10% SDS-PAGE and subjected to immunoblotting. […] Image J software was used for quantification of the western blot band intensities.
Series [6] has as its system SIRT1. Kind of series: SIRT1 protein expression in skeletal muscle of mice. Type of series: in vivo, C57BL/6J mice. The note with it: gavage.
Method: Male C57BL/6J mice were obtained from Jackson Laboratories (Bar Harbor, Me., USA). […] The animals were housed singly with a 12 hour light-dark cycle at 24° C. At 4 weeks of age, the mice were placed on a very high fat diet (60 kcal % fat, D12492, Research Diets) for 16 weeks. Body weight was measured weekly. […] Blood glucose levels were assayed at baseline and each hour thereafter up to 6 hours post gavage. The mice were euthanized and tissues were collected for analysis at 6 hours after gavage.
The tissue and cell lysates were centrifuged at 14,000×g for 10 minutes at 4° C. Protein concentrations were determined using BCA assays (Thermo Fisher Scientific, Rockford, Ill., USA) and the resulting supernatants (50 μg) were resolved by 10% SDS-PAGE and subjected to immunoblotting. Nitrocellulose membranes were incubated with antibodies for 1-2 hours at RT or overnight at 4° C. Image J software was used for quantification of the western blot band intensities.

Residues, ends and D or L forms follow the SMILES beside them. *: point of attachment. Cbz = O=C(OCc1ccccc1)*

For the compound `O=c1cc(Oc2ccc(O)cc2)oc2cc(O)cc(O)c12` [6-demethoxycapillarisin], the “detection in the pellets of treated cells” value in series [1] (insoluble fraction) is given as “not detected”. For the same compound, the “detection in the samples from treated cells” value in series [1] (not quantified) is “detected”. For the compound `COc1ccc(CCC(=O)c2ccc(O)cc2O)cc1` [Compound 2, 2′,4′-dihydroxy-4-methoxydihydrochalcone], the “detectability of 2 after 16 hours” value in series [2] was “undetectable after 16 hours”. Take `NC(=O)c1ncn([C@@H]2O[C@H](COP(=O)(O)O)[C@@H](O)[C@H]2O)c1N` [AICAR, 5-Aminoimidazole-4-carboxamide ribonucleotide]: the “increase in phosphorylation of AMPK (phospho-AMPK to total AMPK, fold over 0-time)” value in series [3] worked out at 2.4 fold.

Turning to `CC(C)C[C@@H](C=O)NC(=O)[C@H](CC(C)C)NC(=O)[C@H](CC(C)C)NC(=O)OCc1ccccc1` [MG132] (Cbz-Leu-Leu-Leu-aldehyde), the “AMPK phosphorylation at Thr172 under proteasome inhibition” value in series [3] (MG132 10 μM, up to 4 hours) is on record as “reduced AMPK phosphorylation”. For the compound `CN(C)C(=N)N=C(N)N` [metformin], the blood glucose levels result in series [4] is on record as “significantly reduced”. Besides, the “increase in phosphorylation of AMPK (phospho-AMPK to total AMPK, fold over 0-time)” value in series [3] is recorded as 1.4 fold. Besides, the “phosphorylation of LKB1 Ser428 in skeletal muscle” value in series [5] was “stimulate LKB1 Ser428 phosphorylation”. In addition, in series [6], the “protein expression of SIRT1” value is “did not observe an increase”.
